Drawing on ChEMBL document CHEMBL1806400, “New isoprenylated flavonoids and adipogenesis-promoting constituents from Morus notabilis” (2011), this text covers Activity for five molecules.

Active and inactive are the calls of the source. The rule behind the calls is not given here.

For assay [1], the system named is 3T3-L1. Briefly: Induction of adipogenesis in mouse 3T3L1 cells assessed as increase in triglyceride content after 8 days by Oil red O staining relative to control. It is filed as functional, cell-based.
The subject of assay [2] is 3T3-L1. The assay is described as follows: Induction of adipogenesis in mouse 3T3L1 cells assessed as increase in triglyceride content at 7.5 uM after 8 days by Oil red O staining relative to control. It is filed as functional.
Assay [3] concerns 3T3-L1. The assay is described as follows: Induction of adipogenesis in mouse 3T3L1 cells assessed as increase in triglyceride content at 15 uM after 8 days by Oil red O staining relative to control. Format: functional.
For assay [4], the system named is 3T3-L1. Briefly: Upregulation of aP2 gene expression in mouse 3T3L1 cells by RT-PCR analysis. Format: functional, cell-based.
The subject of assay [5] is 3T3-L1. Briefly: Upregulation of GLUT4 protein expression in mouse 3T3L1 cells by Western blot analysis. It is filed as functional, cell-based. On the technique in general: In western blotting, separated proteins are transferred to a membrane and probed.
For assay [6], the system named is 3T3-L1. Briefly: Upregulation of aP2 protein expression in mouse 3T3L1 cells by Western blot analysis. Format: functional, cell-based.
Assay [7] deals with 3T3-L1. Briefly: Upregulation of GLUT4 gene expression in mouse 3T3L1 cells by RT-PCR analysis. Format: functional, cell-based.
Assay [8] deals with 3T3-L1. The assay is described as follows: Induction of adipogenesis in mouse 3T3L1 cells assessed as increase in triglyceride content at 5 uM after 8 days by Oil red O staining relative to control. Format: functional.
The test system of assay [9] is 3T3-L1. The assay is described as follows: Induction of adipogenesis in mouse 3T3L1 cells assessed as increase in triglyceride content at 10 uM after 8 days by Oil red O staining relative to control. It is filed as functional.
Assay [10] has as its system 3T3-L1. Briefly: Induction of adipogenesis in mouse 3T3L1 cells assessed as increase in triglyceride content at 1 uM after 8 days by Oil red O staining relative to control. It is filed as functional.

Regarding `CC(C)=CCc1c(O)ccc(C(=O)[C@H]2[C@@H](c3c(O)ccc(C(=O)/C=C/c4ccc(O)cc4O)c3O)C=C(C)C[C@@H]2c2ccc(O)cc2O)c1O`, the result in assay [1] was inactive.

Turning to `CC(C)=CCc1c(O)ccc(C(=O)[C@H]2[C@@H](c3c(O)cc(-c4cc5ccc(O)cc5o4)cc3O)C=C(C)C[C@@H]2c2ccc(O)cc2O)c1O` [CHALCOMORACIN], the Activity is 109.99% in assay [2] and 125.36% in assay [3]. The outcome in assay [4], in [5] and in [7] was inactive. Moreover, the outcome in assay [6] was Active.

`COc1c(-c2ccc(O)c(O)c2C/C=C(\C)CCC=C(C)C)oc2cc(O)cc(O)c2c1=O` [NOTABILISIN A]: the result in [4], in assay [5], in assay [6] and in [7] was Active. Besides, the Activity in assay [8] is on record as 305.32%; in assay [9], 513.55%.

Take `CC(C)=CCC/C(C)=C/Cc1c(-c2oc3c(CC=C(C)C)c(O)cc(O)c3c(=O)c2O)ccc(O)c1O` [NOTABILISIN C]: the Activity in [2] came to 312.24%; in assay [3], 948.51%. Moreover, the result in assay [4], in assay [5], in assay [6] and in [7] was Active.

For `CN(CCOc1ccc(CC2SC(=O)NC2=O)cc1)c1ccccn1` (stereo not given) [ROSIGLITAZONE], in [10], the Activity amounted to 984.24%.
